Test results taken from patent publication US11752154B2, “Pharmaceutical compositions comprising sepiapterin and uses thereof” (PTC Therapeutics MP, Inc., priority 2017, dated 2023).

Columns and labels:
[1] = Kinetic solubility and disproportionation of sepiapterin salts and/or co-crystals in water and Medisca Oral Mix (Example 8); type: physicochemical; settings: for solubility at 1 hr / solubility at 4 hr / solubility at 24 hr: thermodynamic from solid; for solubility at 1 hr / solubility at 4 hr / solubility at 24 hr / Form change / Solubility / Purity (area %): RT; for solubility at 1 hr / solubility at 4 hr / solubility at 24 hr / Solubility: calculated using freebase, target conc. ~7 mg/mL; for Form change: residual solids by XRPD; for form of residual solids: water and Medisca Oral Mix, after 1 hour; for Purity (area %): supernatant, for reference only
Description: The kinetic solubility was evaluated for nicotinate, phosphate, L-tartrate, and fumarate salts and/or co-crystals of sepiapterin in water and Medisca Oral Mix. X-ray powder diffraction (XRPD) was performed for the residual solids to identify form change/disproportionation. Solids were suspended into the media with target conc. of ˜7 mg/mL (calculated by freebase). The suspensions were agitated on a rolling incubator at 25 rpm for 1, 4 and 24 hrs. At each time point, 1 mL of the suspension was pipetted out for centrifugation at 10000 rpm (2 min) and filtration through 0.45 μm membrane to obtain supernatant for HPLC solubility and pH tests, the residual solids were analyzed by XRPD.

[2] = Stability analysis of salts and/or co-crystals of sepiapterin (Example 7); type: physicochemical; settings: 25° C./60% RH and 40° C./75% RH, two weeks
Description: The stability of the prepared salts and/or co-crystals was analyzed after […] at 25° C. and 60% relative humidity and 40° C. and 75% relative humidity. […] None of the phosphate, tartrate, or nicotinate salts and/or co-crystals underwent a form change during the stability testing, and each of them retained greater than 97% purity over the two weeks of the study. In fact, both the tartrate and nicotinate both retained greater than 99% purity.

[3] = Determination of BH4 and sepiapterin levels in plasma, liver, kidney and urine after sepiapterin or BH4 (Example 4); type: in vivo; settings: for kidney, liver and urine exposure to BH4 versus dose level: 20, 60 or 180 mg/kg
Description: Animals were administered the test items, sepiapterin or BH4, at dose levels of 20, 60 or 180 mg/kg. Blood, liver, kidney and urine samples (where possible) were collected from 3 animals/timepoints/group on the day of dosing at 0 (pre-dose, controls only), 0.5, 1, 2, 4, and 8 hours post-dose. Samples were assayed for sepiapterin or BH4 (not quantified in plasma) and non-compartmental pharmacokinetic analysis was performed.

[4] = Medisca Oral Mix, 24 hr, listed as phosphate salt and/or co-crystal
[5] = Water, 1 hr, listed as phosphate salt and/or co-crystal
[6] = Water, 4 hr, listed as phosphate salt and/or co-crystal
[7] = Water, 24 hr, listed as phosphate salt and/or co-crystal
[8] = Medisca Oral Mix, 1 hr, listed as L-tartrate salt and/or co-crystal
[9] = Water, 1 hr, listed as L-tartrate salt and/or co-crystal
[10] = Water, 4 hr, listed as L-tartrate salt and/or co-crystal
[11] = Water, 24 hr, listed as L-tartrate salt and/or co-crystal

Q: Which solubility at 1 hr ([1]; Medisca Oral Mix, aqueous with cosolvent or surfactant or cyclodextrin, 1 hr) does the source give for `C[C@H](O)C(=O)C1=Nc2c(nc(N)[nH]c2=O)NC1` [Nicotinate] here?
A: 2600 µg/mL

Q: And the solubility at 4 hr ([1]; Medisca Oral Mix, aqueous with cosolvent or surfactant or cyclodextrin, 4 hr)?
A: 3100 µg/mL

Q: What about the solubility at 24 hr ([1]; Medisca Oral Mix, aqueous with cosolvent or surfactant or cyclodextrin, 24 hr) of the same compound?
A: 3500 µg/mL

Q: What about the Form change ([1]; Medisca Oral Mix, 1 hr, ** = low crystallinity, listed as nicotinate salt and/or co-crystal) of the same compound?
A: Yes

Q: What about the Form change ([1]; Medisca Oral Mix, 4 hr, ** = low crystallinity, listed as nicotinate salt and/or co-crystal) of the same compound?
A: Yes

Q: What about the Form change ([1]; Medisca Oral Mix, 24 hr, ** = low crystallinity, listed as nicotinate salt and/or co-crystal) of the same compound?
A: Yes

Q: What about the Form change ([1]; Water, 1 hr, listed as nicotinate salt and/or co-crystal) of the same compound?
A: Yes

Q: And the Form change ([1]; Water, 4 hr, listed as nicotinate salt and/or co-crystal)?
A: Yes

Q: What about the Form change ([1]; Water, 24 hr, listed as nicotinate salt and/or co-crystal) of the same compound?
A: Yes

Q: What about the “form of residual solids” value [1] of the same compound?
A: converted to freebase

Q: What about the solubility at 1 hr ([1]; water, 1 hr) of the same compound?
A: 1500 µg/mL

Q: And the solubility at 4 hr ([1]; water, 4 hr)?
A: 2300 µg/mL

Q: What about the solubility at 24 hr ([1]; water, 24 hr) of the same compound?
A: 1800 µg/mL

Q: And the “form change during the stability testing” value [2]?
A: None

Q: What does the source list for `C[C@H](O)C(=O)C1=Nc2c(nc(N)[nH]c2=O)NC1` [sepiapterin]?
A: kidney, liver and urine exposure to BH4 versus dose level [3]: decreased as the dose level increased; kidney BH4 Cmax following sepiapterin administration versus BH4 alone ([3]; except at the high-dose): similar; secondary peak of absorption (plasma sepiapterin) ([3]; low- and mid-dose levels, post-dose): 8 h; sepiapterin exposure amongst the analyzed matrices ([3]; plasma, liver, kidney, urine): highest in urine; dose proportionality of circulating sepiapterin exposure ([3]; plasma, entire dose range): much greater than dose proportional; time of maximum sepiapterin plasma concentrations ([3]; post-dose, sepiapterin 20, 60 or 180 mg/kg): 30 minutes or 2 hours; sepiapterin detected in the liver and kidney ([3]; sepiapterin 20, 60 or 180 mg/kg): only at 30 minutes post-dose and only in the liver for the mid- or high-dose; dose proportionality of sepiapterin exposure ([3]; urine, liver and kidney, entire dose range): less than dose proportional

Q: With `C[C@H](O)C(=O)C1=Nc2c(nc(N)[nH]c2=O)NC1` [Phosphate] as the compound, how does the “Solubility” value [1, 4] read?
A: 2100 µg/mL

Q: What about the “Solubility” value [1, 5] of the same compound?
A: 1700 µg/mL

Q: What about the “Solubility” value [1, 6] of the same compound?
A: 2000 µg/mL

Q: And the “Solubility” value [1, 7]?
A: 1900 µg/mL

Q: What about the Form change ([1]; Medisca Oral Mix, 1 hr, ** = low crystallinity, listed as phosphate salt and/or co-crystal) of the same compound?
A: Yes**

Q: And the Form change ([1]; Medisca Oral Mix, 4 hr, ** = low crystallinity, listed as phosphate salt and/or co-crystal)?
A: Yes**

Q: And the Form change ([1]; Medisca Oral Mix, 24 hr, ** = low crystallinity, listed as phosphate salt and/or co-crystal)?
A: Yes**

Q: What about the Form change [1, 5] of the same compound?
A: Yes

Q: And the Form change [1, 6]?
A: Yes

Q: And the Form change [1, 7]?
A: Yes

Q: What about the “Purity (area %)” value ([1]; Medisca Oral Mix, 1 hr, listed as phosphate salt and/or co-crystal) of the same compound?
A: 99.23 area %

Q: What about the “Purity (area %)” value ([1]; Medisca Oral Mix, 4 hr, listed as phosphate salt and/or co-crystal) of the same compound?
A: 98.95 area %

Q: What about the “Purity (area %)” value [1, 4] of the same compound?
A: 87.63 area %

Q: What about the “Purity (area %)” value [1, 5] of the same compound?
A: 89.92 area %

Q: And the “Purity (area %)” value [1, 6]?
A: 89.52 area %

Q: And the “Purity (area %)” value [1, 7]?
A: 82.64 area %

Q: And the “form of residual solids” value [1]?
A: converted to freebase

Q: And the “form change during the stability testing” value [2]?
A: None

Q: Which “Solubility” value [1, 8] does the source give for `C[C@H](O)C(=O)C1=Nc2c(nc(N)[nH]c2=O)NC1` [L-Tartrate] here?
A: 2000 µg/mL

Q: And the “Solubility” value [1, 9]?
A: 1600 µg/mL

Q: What about the “Solubility” value [1, 10] of the same compound?
A: 1800 µg/mL

Q: What about the “Solubility” value [1, 11] of the same compound?
A: 1800 µg/mL

Q: And the Form change ([1]; Medisca Oral Mix, 1 hr, ** = low crystallinity, listed as L-tartrate salt and/or co-crystal)?
A: Yes

Q: And the Form change ([1]; Medisca Oral Mix, 4 hr, ** = low crystallinity, listed as L-tartrate salt and/or co-crystal)?
A: Yes

Q: What about the Form change ([1]; Medisca Oral Mix, 24 hr, ** = low crystallinity, listed as L-tartrate salt and/or co-crystal) of the same compound?
A: Yes

Q: And the Form change [1, 9]?
A: Yes

Q: What about the Form change [1, 10] of the same compound?
A: Yes

Q: What about the Form change [1, 11] of the same compound?
A: Yes

Q: What about the “Purity (area %)” value [1, 8] of the same compound?
A: 99.68 area %

Q: And the “Purity (area %)” value ([1]; Medisca Oral Mix, 4 hr, listed as L-tartrate salt and/or co-crystal)?
A: 99.54 area %

Q: What about the “Purity (area %)” value ([1]; Medisca Oral Mix, 24 hr, listed as L-tartrate salt and/or co-crystal) of the same compound?
A: 95.67 area %

Q: And the “Purity (area %)” value [1, 9]?
A: 99.34 area %

Q: What about the “Purity (area %)” value [1, 10] of the same compound?
A: 99.07 area %

Q: And the “Purity (area %)” value [1, 11]?
A: 95.61 area %

Q: And the “form of residual solids” value [1]?
A: converted to freebase

Q: And the “form change during the stability testing” value [2]?
A: None

Q: Which “kidney, liver and urine exposure to BH4 versus dose level” value [3] does the source give for `C[C@H](O)[C@H](O)[C@H]1CNc2nc(N)[nH]c(=O)c2N1` [BH4, tetrahydrobiopterin, reference compound] here?
A: decreased as the dose level increased
